Assay results reported in US11447466B2, “Substituted indole compounds useful as inhibitors of TLR7/8/9” (BRISTOL-MYERS SQUIBB COMPANY, priority 2017, dated 2022).
pIC50: −log10 of the molar value.

Experiments:
Format in all cases: cell-based
human TLR9 = molecular target: T1, human TLR9 (Homo sapiens, UniProt Q9NR96); experiment: TLR9 inhibition reporter assay (HEK-Blue SEAP reporter, ODN2006 stimulation); conditions: HEK-Blue cells overexpressing human TLR9, SEAP reporter, ODN2006 5 nM, 22 hour incubation
T1 construct: host or cells: HEK-Blue cells
T1 sequence (Q9NR96 26-1032): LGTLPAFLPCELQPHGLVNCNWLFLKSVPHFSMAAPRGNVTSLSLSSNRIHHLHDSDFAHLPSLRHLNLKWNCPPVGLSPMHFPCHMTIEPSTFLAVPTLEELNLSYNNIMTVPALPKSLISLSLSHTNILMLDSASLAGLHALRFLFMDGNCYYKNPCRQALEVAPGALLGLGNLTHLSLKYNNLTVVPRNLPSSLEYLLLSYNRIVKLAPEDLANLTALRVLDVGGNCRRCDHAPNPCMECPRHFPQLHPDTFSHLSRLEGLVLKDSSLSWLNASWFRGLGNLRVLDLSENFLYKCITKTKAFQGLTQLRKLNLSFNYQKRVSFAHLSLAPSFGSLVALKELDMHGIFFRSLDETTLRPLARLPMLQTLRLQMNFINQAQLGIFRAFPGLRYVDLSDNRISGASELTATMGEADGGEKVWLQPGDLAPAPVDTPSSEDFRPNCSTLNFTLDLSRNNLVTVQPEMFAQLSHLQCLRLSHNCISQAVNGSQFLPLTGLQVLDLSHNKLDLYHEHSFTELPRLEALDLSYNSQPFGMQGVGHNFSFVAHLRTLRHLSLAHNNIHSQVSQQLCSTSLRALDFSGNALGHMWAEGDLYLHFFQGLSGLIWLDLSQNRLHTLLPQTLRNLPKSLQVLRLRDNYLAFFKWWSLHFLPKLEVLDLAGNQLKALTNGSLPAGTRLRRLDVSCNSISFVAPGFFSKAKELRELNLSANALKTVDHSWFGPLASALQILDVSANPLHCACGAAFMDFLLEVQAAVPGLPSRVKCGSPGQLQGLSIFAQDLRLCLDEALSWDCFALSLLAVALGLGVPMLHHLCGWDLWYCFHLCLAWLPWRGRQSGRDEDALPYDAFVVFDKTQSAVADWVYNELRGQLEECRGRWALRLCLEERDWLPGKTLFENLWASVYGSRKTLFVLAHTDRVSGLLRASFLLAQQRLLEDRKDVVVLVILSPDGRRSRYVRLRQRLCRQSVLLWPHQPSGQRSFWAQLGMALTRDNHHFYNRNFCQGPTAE
Method in brief: (§1)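 Human TLR7/8/9 HEK-Blue reporter lines; dose range 0.05 nM–50 μM; 30 min RT preincubation; stimulus gardiquimod 7.5 μM / R848 15.9 μM / ODN2006 5 nM respectively; 22 h, 37 °C; SEAP detected colorimetrically.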

human TLR7 = molecular target: T2, human TLR7 (Homo sapiens, UniProt Q9NYK1); experiment: TLR7 inhibition reporter assay (HEK-Blue SEAP reporter, gardiquimod stimulation); conditions: HEK-Blue cells overexpressing human TLR7, SEAP reporter, gardiquimod 7.5 μM, 22 hour incubation
T2 construct: host or cells: HEK-Blue cells
T2 sequence (Q9NYK1 27-1049): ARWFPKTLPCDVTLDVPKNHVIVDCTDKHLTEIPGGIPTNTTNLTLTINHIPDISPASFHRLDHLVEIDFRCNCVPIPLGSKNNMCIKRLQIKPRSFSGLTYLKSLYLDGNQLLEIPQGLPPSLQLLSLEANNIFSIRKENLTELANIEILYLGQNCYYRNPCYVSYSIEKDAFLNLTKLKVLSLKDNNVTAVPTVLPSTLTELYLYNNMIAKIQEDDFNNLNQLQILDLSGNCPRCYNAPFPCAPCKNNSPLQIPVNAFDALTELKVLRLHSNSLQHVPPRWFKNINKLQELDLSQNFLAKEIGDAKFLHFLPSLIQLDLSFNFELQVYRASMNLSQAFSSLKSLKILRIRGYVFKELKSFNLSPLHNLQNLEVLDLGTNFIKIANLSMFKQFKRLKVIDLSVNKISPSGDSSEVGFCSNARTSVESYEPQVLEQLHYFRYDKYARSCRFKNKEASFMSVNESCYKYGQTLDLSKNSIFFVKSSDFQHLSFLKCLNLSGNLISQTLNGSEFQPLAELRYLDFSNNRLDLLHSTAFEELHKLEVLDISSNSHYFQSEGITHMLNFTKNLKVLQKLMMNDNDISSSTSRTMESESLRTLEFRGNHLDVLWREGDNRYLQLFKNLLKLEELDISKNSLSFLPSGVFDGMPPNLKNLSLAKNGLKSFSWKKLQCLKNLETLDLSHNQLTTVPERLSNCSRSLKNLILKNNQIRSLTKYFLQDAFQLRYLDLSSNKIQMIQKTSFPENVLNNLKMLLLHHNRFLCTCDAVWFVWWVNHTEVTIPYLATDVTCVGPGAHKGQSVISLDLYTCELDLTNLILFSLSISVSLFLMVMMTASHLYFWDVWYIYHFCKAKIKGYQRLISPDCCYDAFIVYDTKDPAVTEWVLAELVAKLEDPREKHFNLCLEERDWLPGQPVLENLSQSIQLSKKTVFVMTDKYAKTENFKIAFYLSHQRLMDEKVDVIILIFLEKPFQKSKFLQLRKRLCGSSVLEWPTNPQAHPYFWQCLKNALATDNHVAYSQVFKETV
Method in brief: as §1

human TLR8 = molecular target: T3, human TLR8 (Homo sapiens, UniProt Q9NR97); experiment: TLR8 inhibition reporter assay (HEK-Blue SEAP reporter, R848 stimulation); conditions: HEK-Blue cells overexpressing human TLR8, SEAP reporter, R848 15.9 μM, 22 hour incubation
T3 construct: host or cells: HEK-Blue cells
T3 sequence (Q9NR97 27-1041): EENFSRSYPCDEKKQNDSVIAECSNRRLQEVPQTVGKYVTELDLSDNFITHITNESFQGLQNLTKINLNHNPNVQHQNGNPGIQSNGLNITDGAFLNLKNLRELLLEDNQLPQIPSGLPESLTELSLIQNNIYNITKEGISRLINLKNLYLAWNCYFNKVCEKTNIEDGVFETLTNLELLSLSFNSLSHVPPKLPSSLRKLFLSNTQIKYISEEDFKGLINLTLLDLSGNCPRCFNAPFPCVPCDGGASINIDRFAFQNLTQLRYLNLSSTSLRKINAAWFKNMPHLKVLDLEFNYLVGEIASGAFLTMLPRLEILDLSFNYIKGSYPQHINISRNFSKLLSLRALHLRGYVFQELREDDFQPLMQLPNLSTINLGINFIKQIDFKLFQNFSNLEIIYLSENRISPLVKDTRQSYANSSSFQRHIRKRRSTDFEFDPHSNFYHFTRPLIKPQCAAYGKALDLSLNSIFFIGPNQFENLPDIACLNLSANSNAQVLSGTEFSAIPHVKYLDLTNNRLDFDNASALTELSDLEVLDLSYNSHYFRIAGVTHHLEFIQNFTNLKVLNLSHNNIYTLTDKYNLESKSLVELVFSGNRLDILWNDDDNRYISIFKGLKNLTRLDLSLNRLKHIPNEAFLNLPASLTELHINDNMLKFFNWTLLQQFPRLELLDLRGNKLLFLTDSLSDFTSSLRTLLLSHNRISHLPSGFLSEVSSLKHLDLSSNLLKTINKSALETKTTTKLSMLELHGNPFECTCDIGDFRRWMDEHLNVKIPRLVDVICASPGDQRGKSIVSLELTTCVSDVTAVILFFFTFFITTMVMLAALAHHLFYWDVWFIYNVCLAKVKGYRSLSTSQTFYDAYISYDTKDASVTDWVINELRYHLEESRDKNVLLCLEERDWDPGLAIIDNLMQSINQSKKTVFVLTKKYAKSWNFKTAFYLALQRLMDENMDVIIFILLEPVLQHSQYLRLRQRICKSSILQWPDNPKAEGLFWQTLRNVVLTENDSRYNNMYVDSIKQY
Method in brief: as §1

| pIC50 (human TLR9) | pIC50 (human TLR7) | pIC50 (human TLR8) | Structure (SMILES) |
| --- | --- | --- | --- |
| 4.31 | 7.21 | 7.81 | Cc1cc(-c2[nH]c3ccc(C4CCN(CC(=O)N(C)C)CC4)cc3c2C(C)C)cn(CCO)c1=O [Example 167, 2-(4-(2-(1-(2-hydroxyethyl)-5-methyl-6-oxo-1,6-dihydropyridin-3-yl)-3-isopropyl-1H-indol-5-yl)piperidin-1-yl)-N,N-dimethylacetamide] |
| 5.62 | 8.10 | 7.99 | CCc1cc(-c2[nH]c3ccc(C4CCN(CC(=O)N(C)C)CC4)cc3c2C(C)C)cn(C)c1=O [Example 168, 2-(4-(2-(5-ethyl-1-methyl-6-oxo-1,6-dihydropyridin-3-yl)-3-isopropyl-1H-indol-5-yl)piperidin-1-yl)-N,N-dimethylacetamide] |
| 5.74 | 7.92 | 8.21 | CC(C)c1c(-c2cc(-c3cccnc3)c(=O)n(C)c2)[nH]c2ccc(C3CCN(CC(=O)N(C)C)CC3)cc12 [Example 169, 2-(4-(3-isopropyl-2-(1-methyl-2-oxo-1,2-dihydro-[3,3′-bipyridin]-5-yl)-1H-indol-5-yl)piperidin-1-yl)-N,N-dimethylacetamide] |
| 5.68 | 7.70 | 7.84 | CC(C)c1c(-c2cc(-c3ccccc3)c(=O)n(C)c2)[nH]c2ccc(C3CCN(CC(=O)N(C)C)CC3)cc12 [Example 170, 2-(4-(3-isopropyl-2-(1-methyl-6-oxo-5-phenyl-1,6-dihydropyridin-3-yl)-1H-indol-5-yl)piperidin-1-yl)-N,N-dimethylacetamide] |
| 4.60 | 8.29 | 7.98 | Cc1cc(-c2[nH]c3ccc(C4CCN(C5COC5)CC4)cc3c2C(C)C)cn(C)c1=O [Example 171, 5-(3-isopropyl-5-(1-(oxetan-3-yl)piperidin-4-yl)-1H-indol-2-yl)-1,3-dimethylpyridin-2(1H)-one] |
| 6.82 | 7.52 | 8.16 | CNCCN1CCC(c2ccc3[nH]c(-c4ccc(=O)n(C)c4)c(C(C)C)c3c2)CC1 [Example 172, 5-(3-isopropyl-5-(1-(2-(methylamino)ethyl)piperidin-4-yl)-1H-indol-2-yl)-1-methylpyridin-2(1H)-one] |
| ≤ 4.30 | 7.80 | 7.35 | CC(=O)N1CC(N2CCC(c3ccc4[nH]c(-c5cn(C)c(=O)c(Cl)c5C)c(C(C)C)c4c3)CC2)C1 [Example 174, 5-(5-(1-(1-acetylazetidin-3-yl)piperidin-4-yl)-3-isopropyl-1H-indol-2-yl)-3-chloro-1,4-dimethylpyridin-2(1H)-one] |
| 4.81 | 6.56 | 7.06 | CC(C)c1c(-c2ccc(=O)n(C)c2)[nH]c2ccc(C3CCN(C4COC4)CC3)cc12 [Example 175, 5-(3-isopropyl-5-(1-(oxetan-3-yl)piperidin-4-yl)-1H-indol-2-yl)-1-methylpyridin-2(1H)-one] |
| 6.75 | 8.89 | 8.89 | CNCCN1CCC(c2ccc3[nH]c(-c4cc(C)c(=O)n(C)c4)c(C(C)C)c3c2)CC1 [Example 176, 5-(3-isopropyl-5-(1-(2-(methylamino)ethyl)piperidin-4-yl)-1H-indol-2-yl)-1,3-dimethylpyridin-2(1H)-one] |
| 5.04 | 6.81 | 7.28 | CC(C)c1c(-c2ccc(=O)n(C)c2)[nH]c2ccc(C3CCN(C4CCOC4)CC3)cc12 (stereo not drawn) [Example 177, 5-(3-isopropyl-5-(1-(tetrahydrofuran-3-yl)piperidin-4-yl)-1H-indol-2-yl)-1-methylpyridin-2(1H)-one] |
| 5.15 | 8.41 | 8.49 | Cc1cc(-c2[nH]c3ccc(C4CCN(C5CCOCC5)CC4)cc3c2C(C)C)cn(C)c1=O [Example 178, 5-(3-isopropyl-5-(1-(tetrahydro-2H-pyran-4-yl)piperidin-4-yl)-1H-indol-2-yl)-1,3-dimethylpyridin-2(1H)-one] |
| 5.41 | 7.02 | 7.54 | CC(C)c1c(-c2ccc(=O)n(C)c2)[nH]c2ccc(C3CCN(C4COC4)CC3)cc12 [Example 179, 5-(3-isopropyl-5-(1-(oxetan-3-yl)piperidin-4-yl)-1H-indol-2-yl)-1-methylpyridin-2(1H)-one] |
| 5.24 | 8.15 | 8.09 | Cc1cc(-c2[nH]c3ccc(C4CCN(C5CCOC5)CC4)cc3c2C(C)C)cn(C)c1=O (stereo not drawn) [Example 180, 5-(3-isopropyl-5-(1-(tetrahydrofuran-3-yl)piperidin-4-yl)-1H-indol-2-yl)-1,3-dimethylpyridin-2(1H)-one] |
| 4.87 | 8.70 | 8.07 | Cc1cc(-c2[nH]c3ccc(C4CCN(C)CC4)cc3c2C(C)C)cn(C)c1=O [Example 181, 5-(3-isopropyl-5-(1-methylpiperidin-4-yl)-1H-indol-2-yl)-1,3-dimethylpyridin-2(1H)-one] |
